Experiments:
[1] = molecular target: T1, Recombinant full-length human IDO1 (Homo sapiens, UniProt P14902); assay: IDO1 enzymatic assay (NFK quantified by LCMS); type: biochemical; conditions: 2 nM enzyme, 5 μM L-tryptophan, 30 min pre-incubation, pH6.5; mean if measured multiple times; read-out: hIDO activity (IC50 in nM)
T1 construct: Recombinant full-length human IDO1 with a N-terminal hexahistidine tag; hexahistidine (N); made in house; host or cells: E. coli
Summary of the method: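 His-tagged full-length IDO1 (E. coli, 2 nM final) in pH 6.5 phosphate with ascorbate, methylene blue and catalase was preincubated 30 min at RT with compound (10 µM–0.5 nM, 0.6% DMSO), then run 30 min at RT with 5 µM L-Trp. NFK was measured by LCMS against a d5-Trp standard. IC50 came from a four-parameter fit of duplicates.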

[2] = molecular target: T2, Recombinant human TDO comprising amino acids 19-407 (Homo sapiens, UniProt P48775); assay: TDO2 enzymatic assay (NFK quantified by LCMS); type: biochemical; conditions: 15 nM enzyme, 200 μM L-tryptophan, 30 min pre-incubation, pH7; mean if measured multiple times; read-out: hTDO activity (IC50 in nM)
T2 construct: human TDO comprising amino acids 19-407; hexahistidine (N); made in house; host or cells: E. coli
T2 sequence (P48775 19-406 limits assumed): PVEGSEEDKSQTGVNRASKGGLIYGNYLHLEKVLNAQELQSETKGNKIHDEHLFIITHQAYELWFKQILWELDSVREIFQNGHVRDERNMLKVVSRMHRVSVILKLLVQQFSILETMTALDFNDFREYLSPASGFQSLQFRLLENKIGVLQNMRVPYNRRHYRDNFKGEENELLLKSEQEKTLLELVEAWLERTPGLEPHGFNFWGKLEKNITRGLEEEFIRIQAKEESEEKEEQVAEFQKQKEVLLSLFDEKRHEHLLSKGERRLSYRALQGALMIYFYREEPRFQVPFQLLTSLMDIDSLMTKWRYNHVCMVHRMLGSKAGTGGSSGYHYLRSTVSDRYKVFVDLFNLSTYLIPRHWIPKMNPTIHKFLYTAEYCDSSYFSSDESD
Summary of the method: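 E. coli-expressed N-terminal His-tagged TDO (15 nM) in pH 7 phosphate buffer with ascorbate and catalase, preincubated 30 min at RT with compound (10 μM to 0.5 nM, 0.6% DMSO). Reaction started with 200 μM L-tryptophan for 30 min at RT; NFK measured by LCMS against deuterated internal standard, IC50 by four-parameter fit, duplicates.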

[3] = molecular target: T3, IDO1 in SKOV3 cells (Homo sapiens, UniProt P14902); assay: Cell-based IDO inhibitory activity in IFNγ-stimulated SKOV3 cells (NFK + kynurenine by LCMS); conditions: IFNγ 50 ng/ml, 200 uM L-tryptophan, 24 hours
T3 construct: SKOV3 cells (NCI, No. 0503405) which upregulate IDO1 after stimulation with IFNγ; host or cells: SKOV3 cells stimulated with IFNγ
T3 sequence (P14902 whole entry): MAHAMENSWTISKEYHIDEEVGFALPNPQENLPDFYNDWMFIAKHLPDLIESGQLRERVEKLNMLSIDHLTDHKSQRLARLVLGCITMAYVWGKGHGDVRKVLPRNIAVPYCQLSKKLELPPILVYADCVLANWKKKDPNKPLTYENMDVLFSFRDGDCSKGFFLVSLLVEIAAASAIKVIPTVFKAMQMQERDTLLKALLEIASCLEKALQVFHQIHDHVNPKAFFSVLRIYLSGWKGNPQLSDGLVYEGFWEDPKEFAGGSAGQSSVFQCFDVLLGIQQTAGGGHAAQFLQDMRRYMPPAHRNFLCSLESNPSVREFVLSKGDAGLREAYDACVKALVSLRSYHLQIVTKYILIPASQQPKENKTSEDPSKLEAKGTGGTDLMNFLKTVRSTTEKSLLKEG
Summary of the method: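 SKOV3 cells (4000/well, pre-cultured 24 h) were treated with compound (10 uM-40 nM) plus 200 uM L-tryptophan and 50 ng/ml IFNγ for 24 h at 37° C. N-formylkynurenine plus kynurenine in supernatant was measured by LCMS against a d5-tryptophan internal standard. IC50 was fitted against 0.2% DMSO and reference-inhibitor controls, in duplicate, with repeat measurements averaged.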

T1 sequence (P14902 whole entry): as above

SMILES | IC50 [1] [nM] | IC50 [2] [nM] | IC50 [3] [nM]
O[C@@H](c1cn(-c2ccc(N3CCCC3)cc2)nn1)c1c(C2CC2)ncc2cncn12 [Example 40, (R)-(6-Cyclopropyl-imidazo[1,5-a]pyrazin-5-yl)-[1-(4-pyrrolidin-1-yl-phenyl)-1H-[1,2,3]triazol-4-yl]-methanol] | 16.5 | > 10200 | 154
Nc1ccc(-n2cc([C@H](O)c3c(C4CC4)ncc4cncn34)nn2)cc1 [Example 41, (R)-[1-(4-Amino-phenyl)-1H-[1,2,3]triazol-4-yl]-(6-cyclopropyl-imidazo[1,5-a]pyrazin-5-yl)-methanol] | 17.5 | > 10200 | 212
O[C@@H](c1cn(-c2ccc(N3CCC34COC4)cc2)nn1)c1c(C2CC2)ncc2cncn12 [Example 46, (R)-(6-Cyclopropyl-imidazo[1,5-a]pyrazin-5-yl)-{1-[4-(6-oxa-1-aza-spiro[3.3]hept-1-yl)-phenyl]-1H-[1,2,3]triazol-4-yl}-methanol] | 15.1 | > 10200 | 356

The remaining molecules from weak to strong by IC50 [1], led by results:

IC50 [1] [nM] | IC50 [2] [nM] | IC50 [3] [nM] | SMILES
15 | > 10200 | 56.8 | O[C@@H](c1cn(-c2ccc(N3CC4(COC4)C3)cc2)nn1)c1c(C2CC2)ncc2cncn12 [Example 45, (R)-(6-Cyclopropyl-imidazo[1,5-a]pyrazin-5-yl)-{1-[4-(2-oxa-6-aza-spiro[3.3]hept-6-yl)-phenyl]-1H-[1,2,3]triazol-4-yl}-methanol]
14.5 | > 10200 | 377 | CN(C)c1ccc(-n2cc([C@H](O)c3c(C4CC4)ncc4cncn34)nn2)cc1 [Example 44, (R)-(6-Cyclopropyl-imidazo[1,5-a]pyrazin-5-yl)-[1-(4-dimethylamino-phenyl)-1H-[1,2,3]triazol-4-yl]-methanol]
13.5 | > 10200 | 199 | CNc1ccc(-n2cc([C@H](O)c3c(C4CC4)ncc4cncn34)nn2)cc1 [Example 42, (R)-(6-Cyclopropyl-imidazo[1,5-a]pyrazin-5-yl)-[1-(4-methylamino-phenyl)-1H-[1,2,3]triazol-4-yl]-methanol]
7.76 | > 10200 | 145 | CN1CCc2cc(-n3cc([C@H](O)c4c(C5CC5)ncc5cncn45)nn3)ccc21 [Example 47, (R)-(6-Cyclopropyl-imidazo[1,5-a]pyrazin-5-yl)-[1-(1-methyl-2,3-dihydro-1H-indol-5-yl)-1H-[1,2,3]triazol-4-yl]-methanol]

Source: US20220259212A1, “INHIBITORS OF INDOLEAMINE 2,3-DIOXYGENASE AND/OR TRYPTOPHAN 2,3-DIOXYGENASE” (Idorsia Pharmaceuticals Ltd, priority 2019, published 2022)
